Measured values taken from publication PMC9849758, “Chemically diverse activity-based probes with unexpected inhibitory mechanisms targeting trypsin-like serine proteases” (Frontiers in Chemistry, 2023).
Read-outs that look alike come from different tables or passages of the source.

Columns and labels:
Assay type in all cases: biochemical
[1] = target: T1, Cathepsin G (cathepsin G human neutrophil) (Homo sapiens, UniProt P08311); assay: IC50 determination, spectrophotometric protease assay
T1 construct: Cathepsin G (cathepsin G human neutrophil, Sigma-Aldrich); purchased Sigma-Aldrich; host or cells: human neutrophil
T1 sequence (P08311 21-255): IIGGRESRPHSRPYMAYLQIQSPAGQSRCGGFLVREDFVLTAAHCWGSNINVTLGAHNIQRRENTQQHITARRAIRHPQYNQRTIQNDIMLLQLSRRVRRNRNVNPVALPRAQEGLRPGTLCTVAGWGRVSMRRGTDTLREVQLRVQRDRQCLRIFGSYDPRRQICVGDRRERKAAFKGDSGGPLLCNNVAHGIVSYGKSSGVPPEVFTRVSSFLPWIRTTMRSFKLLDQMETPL
Description: (§1) The IC50 values were determined using a spectrophotometric assay. All the experiments were conducted in duplicate. The readout consisted of evaluating the protease-mediated release of the chromophore para-nitroaniline (pNA) or fluorophore 7-amino-4-methyl coumarin (AMC) moieties from the respective substrates. Enzymatic activity was measured for 30 min at 37°C. All compounds were initially screened at three concentrations (10, 1, and .1 μM) to estimate the range of the IC50 value. Those which were able to reduce protease activity by at least 50% at a concentration of 10 μM were submitted to an exact IC50 determination. […] A third independent experiment was performed when the standard deviation of the two independent experiments was higher than […]. IC50 values were obtained by fitting the data with the four-parameter logistics equation using GraphPad Prism 9.
(§2) The conditions for each protease are described as follows, the concentration of substrate used was at the corresponding Km.

[2] = target: T2, TLCK-treated pancreatic bovine chymotrypsin (Bos taurus, UniProt P00766); assay: as above
T2 construct: TLCK-treated pancreatic bovine chymotrypsin (Sigma-Aldrich); purchased Sigma-Aldrich; host or cells: bovine pancreas
Description: as §1, §2

[3] = target: T3, Thrombin (recombinant thrombin) (Homo sapiens, UniProt P00734); assay: as above
T3 construct: purchased R&D
Description: as §1, §2

[4] = target: T4, Trypsin-3 (recombinant trypsin-3) (Homo sapiens, UniProt P35030); assay: as above
T4 construct: purchased R&D
T4 sequence (P35030 1-304): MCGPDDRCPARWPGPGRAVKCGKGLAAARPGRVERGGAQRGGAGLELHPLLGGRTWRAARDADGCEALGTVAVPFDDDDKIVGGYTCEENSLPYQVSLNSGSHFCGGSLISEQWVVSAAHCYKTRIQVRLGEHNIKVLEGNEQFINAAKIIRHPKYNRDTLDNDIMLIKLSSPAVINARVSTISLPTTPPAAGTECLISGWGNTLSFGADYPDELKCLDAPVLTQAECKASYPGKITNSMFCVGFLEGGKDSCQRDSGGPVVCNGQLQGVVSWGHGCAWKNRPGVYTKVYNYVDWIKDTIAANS
Description: as §1, §2

[5] = target: T5, uPA (recombinant urokinase plasminogen activator) (Homo sapiens, UniProt P00749); assay: as above
T5 construct: purchased HYPHEN BioMed
Description: as §1, §2

[6] = target: T6, β-tryptase (recombinant tryptase β-2) (Homo sapiens, UniProt P20231); assay: as above
T6 construct: purchased EnzoLife Sciences
Description: as §1, §2

[7] = target: T7, uPA (Homo sapiens, UniProt P00749); assay: Jump dilution, determination of inhibition type; settings: inhibitor at 10 times IC50, 15 min, diluted 10-fold or 100-fold; Rev./Irrev.
T7 construct: purchased HYPHEN BioMed
Description: (§3) The dissociation of the enzyme-inhibitor complex was monitored by substrate hydrolysis over time ([Joossens et al., 2006]).
(§4) Because ABPs are designed to be irreversible serine protease inhibitors, the IC50 is exclusively used as a first discriminatory evaluation. When an inhibitor is irreversible, its IC50 value not only depends on the substrate and enzyme concentration but also on the time of incubation with the enzyme before the reaction is started by adding the substrate. […] The progress curve in the presence of an irreversible inhibitor will show final velocities equal to zero (Figure 6C). In contrast, for a reversible inhibitor, progress curves have a non-zero final steady-state velocity (Figure 6A) ([McWhirter, 2021]). To corroborate the inhibitory mechanism of the compounds, jump-dilution assays were performed. These use an inhibitor concentration of 10-fold the IC50 for the incubation, and a posteriori, the reaction mixture is diluted 10-fold or 100-fold before adding the substrate. In the case of an irreversible inhibitor, enzymatic activity is not regained (Figure 6D), whereas, in the case of a reversible compound, a slow release of the inhibitor and a gradual increase of the enzymatic activity rate is observed (Figure 6B) ([Copeland, 2013]; [McWhirter, 2021]). The jump-dilution assays confirmed the behavior described by the progress curves.
(§5) 2.2.2 Jump dilution results
(§6) Supplementary Table 2. Jump dilution of selected alkyne and desthiobiotin probes against a panel of trypsin-like serine proteases. […]
(§7) # R R DtBa 3 tryptase Thrombin uPA CatG
(§8) 32b H Alk Irrev. Irrev. Rev. Irrev. Rev.
(§9) 45b DtB Irrev. Irrev. Rev. N.D. N.D.
(§10) 33b Alk Irrev. Irrev. Rev. Irrev. Rev.
(§11) 46b Cl DtB Irrev. Irrev. Rev. N.D. N.D.
(§12) 34b H Alk Rev. Rev. Rev. Irrev. Rev.
(§13) 50b DtB Rev. Rev. Rev. Irrev. Rev.
(§14) 35b Alk Rev. Rev. Rev. Irrev. Rev.
(§15) 52b NHCOMe DtB Rev. Rev. Rev. Irrev. Rev.
(§16) 36b Alk Rev. Rev. Rev. Irrev. Rev.
(§17) 54b Cl DtB Rev. Rev. Rev. Irrev. Rev.
(§18) 37b Alk Irrev. Irrev. N.D. Irrev. Irrev.
(§19) 55b H DtB Irrev. Irrev. N.D. Irrev. Irrev.
(§20) 38b Alk Irrev. Irrev. N.D. Irrev. Irrev.
(§21) 56b NHCOMe DtB Irrev. Irrev. N.D. Irrev. Irrev.
(§22) 39b Alk Irrev. Irrev. N.D. Irrev. Rev.
(§23) 57b Cl DtB Irrev. Irrev. N.D. Irrev. Rev.
(§24) 41b H Alk Irrev. Irrev. Irrev. N.D. N.D.
(§25) 31b Pro-Lys H Alk Irrev. Irrev. Irrev. Irrev. N.D. a Alk: ABP precursor bearing an alkyne; DtB: desthiobiotin probe b Panel of serine proteases abbreviations: urokinase plasminogen activator (uPA), cathepsin G (catG) N.D.: IC50 is greater than 10µM, and jump dilution was not performed
(§26) 2.2.3 Progress curves and Jump dilution experiments
(§27) Kinetic assays were performed in the following manner. The inhibitor was mixed with the substrate, and the buffer solution with the enzyme was added at the time zero. The progress curves show the release of para-nitroaniline (pNA) or 7-amino-4-methyl coumarin (AMC) as a function of time.
(§28) To monitor the dissociation of the inhibitor-enzyme, aliquots of the enzyme were incubated at 37 °C without and with the inhibitor at a concentration 10 times higher than its IC 50. The enzyme […]
(§29) min, the aliquots were diluted 10-fold or 100-fold into the substrate concentration and assay buffer used for the IC50 determination. The dissociation of the enzyme-inhibitor complex was monitored by substrate hydrolysis over time. Blue lines represent the control where no inhibitor was present. Pink lines represent the assay with inhibitor.

[8] = target: T8, Trypsin-3 (Homo sapiens, UniProt P35030); assay: Jump dilution, determination of inhibition type; design: purchased R&D; settings: inhibitor at 10 times IC50, 15 min, diluted 10-fold or 100-fold; Rev./Irrev.
T8 sequence (P35030 1-304): T4 sequence (P35030 1-304)
Description: as §3, §4, §5, §6, §7, §8, §9, §10, §11, §12, §13, §14, §15, §16, §17, §18, §19, §20, §21, §22, §23, §24, §25, §26, §27, §28, §29

[9] = read-out: CatG IC50, desthiobiotin probes, 15 min preincubation at 37°C, mean ± SD
[10] = read-out: ChTryp IC50, desthiobiotin probes, 15 min preincubation at 37°C, mean ± SD
[11] = read-out: Thrombin IC50, desthiobiotin probes, 15 min preincubation at 37°C, mean ± SD
[12] = read-out: Trypsin-3 IC50, desthiobiotin probes, 15 min preincubation at 37°C, mean ± SD
[13] = read-out: uPA IC50, desthiobiotin probes, 15 min preincubation at 37°C, mean ± SD
[14] = read-out: β-tryptase IC50, desthiobiotin probes, 15 min preincubation at 37°C, mean ± SD

T6 sequence (P20231 31-275): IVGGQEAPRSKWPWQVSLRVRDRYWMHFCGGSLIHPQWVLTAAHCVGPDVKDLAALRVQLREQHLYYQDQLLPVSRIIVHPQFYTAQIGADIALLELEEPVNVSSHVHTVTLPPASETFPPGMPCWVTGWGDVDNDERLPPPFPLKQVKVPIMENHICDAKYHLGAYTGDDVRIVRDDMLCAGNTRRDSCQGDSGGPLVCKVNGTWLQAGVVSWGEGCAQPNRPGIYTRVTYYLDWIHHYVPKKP

Compound | IC50 [1, 9] [nM] | IC50 [2, 10] [nM] | IC50 [3, 11] [nM] | IC50 [4, 12] [nM] | IC50 [5, 13] [nM] | IC50 [6, 14] [nM] | uPA jump dilution result [7] | Trypsin-3 jump dilution result [8] | IC50 [1] [nM] | IC50 [2] [nM] | IC50 [3] [nM] | IC50 [4] [nM] | IC50 [5] [nM] | IC50 [6] [nM]
C[C@@H]1NC(=O)N[C@@H]1CCCCCC(=O)NCCOCCOCCOCCn1cc(CCCOC(=O)NC(c2ccc(NC(=N)N)cc2)P(=O)(Oc2ccc(Cl)cc2)Oc2ccc(Cl)cc2)nn1 (stereo partly drawn) [57b] | 120 ± 40 | > 10000 | > 10000 | 180 ± 70 | 160 ± 40 | 20 ± 0.2 | Irrev. | Irrev. | – | – | – | – | – | –
C#CCCCOC(=O)NC(c1ccc(NC(=N)N)cc1)P(=O)(Oc1ccc(Cl)cc1)Oc1ccc(Cl)cc1 (stereo not drawn) [39b, Pent-4-yn-1-yl ((bis(4-chlorophenoxy)phosphoryl)(4-guanidinophenyl)methyl)carbamate] | – | – | – | – | – | – | Irrev. | Irrev. | 90 ± 22 | > 10000 | > 10000 | 90 ± 9 | 220 ± 60 | 70 ± 4
C[C@@H]1NC(=O)N[C@@H]1CCCCCC(=O)NCCOCCOCCOCCn1cc(CCCOC(=O)NC(CCCNC(=N)N)P(=O)(Oc2ccc(Cl)cc2)Oc2ccc(Cl)cc2)nn1 (stereo partly drawn) [46b] | > 10000 | > 10000 | 40 ± 6 | 70 ± 2 | 420 ± 50 | 40 ± 6 | – | Irrev. | – | – | – | – | – | –
C#CCCCOC(=O)NC(CCCNC(=N)N)P(=O)(Oc1ccccc1)Oc1ccccc1 (stereo not drawn) [32b] | – | – | – | – | – | – | Irrev. | Irrev. | 7570 ± 580 | > 10000 | 850 ± 130 | 30 ± 7 | 4800 ± 80 | 3740 ± 530
C[C@@H]1NC(=O)N[C@@H]1CCCCCC(=O)NCCOCCOCCOCCn1cc(CCCOC(=O)NC(CCCNC(=N)N)P(=O)(Oc2ccccc2)Oc2ccccc2)nn1 (stereo partly drawn) [45b] | > 10000 | > 10000 | 610 ± 170 | 220 ± 20 | > 10000 | 800 ± 50 | – | Irrev. | – | – | – | – | – | –
C#CCCCOC(=O)NC(Cc1ccc(NC(=N)N)cc1)P(=O)(Oc1ccccc1)Oc1ccccc1 (stereo not drawn) [34b] | – | – | – | – | – | – | Irrev. | Rev. | 450 ± 20 | > 10000 | 8490 ± 2250 | 1 ± 0.3 | – | 630 ± 30
